This is an account of results in paper PMC9481570, “A small molecule antagonist of SMN disrupts the interaction between SMN and RNAP II” (Nature Communications, 2022).

Common to all, as to assay: Affinity-purification and mass spectrometry (AP-MS) chemical proteomics, all proteins;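 for Difference: 200 µM free competitor with 20 µM biotin probe overnight in lysate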
Holding throughout (assay type): binding

Experiment [1] has as its target T1, proteins displaced from immobilized biotin-Cmpd 1 pulldowns (U2OS cell lysate) (Homo sapiens, UniProt P40939).
T1 construct: endogenous in cells; host or cells: U2OS
The following applies: GN=HADHA (P40939). The method, then:
(§1) The samples for AP-MS were prepared following pulldown procedure as previously described with minor modifications. Briefly, U2OS cells were lysed in RIPA buffer and the cell lysate was equally divided into two groups: (1) DMSO group (control group): the cell lysate was incubated with 20 μM biotin-labeled compound 1; (2) Cpmd 1 group (sample group): the cell lysate was incubated with 20 μM biotin-labeled compound 1 and 200 μM free compound 1. Each group contains three biological replicates. They were incubated overnight at 4 °C, then 30 μL streptavidin beads (Thermo Fisher, 20353) was added and incubated at 4 °C for 1 h. The beads were then washed with RIPA buffer for 3 times, 10 min/time.
(§2) Beads were rinsed twice with 50 mM TEAB, pH 7.55, before eluting proteins with 25 μL of 5% SDS, 50 mM TEAB, pH 7.55. The sample was then centrifuged at 17,000 × g for 10 min to remove any debris. Proteins were reduced with 20 mM TCEP (Thermo Fisher, 77720) and incubated at 65 °C for 30 min. The sample was cooled to room temperature and 1 μL of 0.5 M iodoacetamide acid was added and allowed to react for 20 min in dark. Phosphoric acid (12%, 2.75 μL) was added to the protein solution, followed by adding 165 μL of binding buffer (90% methanol, 100 mM TEAB, pH 7.1). The resulting solution was added to S-Trap spin column (protifi.com) and passed through the column using a bench top centrifuge (30 s spin at 4000 × g). The spin column was washed with 400 μL of binding buffer and centrifuged. This step was repeated two more times. Then trypsin was added to the protein mixture at a mass ratio of 1:25 in 50 mM TEAB, pH 8.0, and the sample was incubated at 37 °C for 4 h. Peptides were eluted with 80 μL of 50 mM TEAB, followed by 80 μL of 0.2% formic acid, and finally 80 μL of 50% acetonitrile, 0.2% formic acid. The combined peptide solution was then dried in a speed vac and resuspended in 2% acetonitrile, 0.1% formic acid, 97.9% water and placed in an autosampler vial.
(§3) Samples were analyzed by nanoLC-MS/MS (nanoRSLC, Thermo Fisher) using an Aurora series (Ion Opticks) reversed phase HPLC column (25 cm length × 75 µm inner diameter) and directly injected to an Orbitrap Eclipse (Thermo Fisher) using a 120 min gradient (mobile phase A = 0.1% formic acid, mobile phase B = 99.9% acetonitrile with 0.1% formic acid; hold 2% B for 5 min, 2–6% B in 0.1 min, 6–25% in 100 min, 25–50% in 15 min) at a flow rate of 350 nL/min. Eluted peptide ions were analyzed using a data-dependent acquisition (DDA) method with resolution settings of 120,000 and 15,000 (at m/z 200) for MS1 and MS2 scans, respectively. DDA-selected peptides were fragmented using stepped high energy collisional dissociation (27, 32, and 37%).
(§4) The data of AP-MS were analyzed as a previously described method with minor modifications. Briefly, the raw MS files were searched with MaxQuant software (version 1.6.1.1, www.maxquant.org)[56] against the UniProt human protein database (www.uniprot.org) concatenated with common contaminants and the decoy database. The mass tolerance for precursor ions was set to 20 ppm and 4.5 ppm for the first and main search, respectively. The cysteine carbamidomethylation was set as fixed modification and methionine oxidation and N-terminal acetylation as variable modifications. Enzyme specificity was set to trypsin and a maximum missed cleavage was set as 2. The 1% false discovery rate (FDR) at both peptide and protein levels was applied for the analysis. Relative protein quantification was based on the label-free quantification incorporated in the MaxQuant software. The iBAQ intensity of proteins was obtained for the control and experimental samples. The missing iBAQ intensity was replaced by a random number, which was calculated from a normal distribution with a width of 0.3 and a downshift of 1.8 defined by Perseus software (version 1.6.5.0). The P-value was calculated by performing two-sample Student’s t-test. […]

Experiment [2] concerns the target T2, proteins displaced from immobilized biotin-Cmpd 1 pulldowns (U2OS cell lysate) (Homo sapiens, UniProt P35606).
T2 construct: endogenous in cells; host or cells: U2OS
The following applies: GN=COPB2 (P35606). On the procedure: as §1, §2, §3, §4

Experiment [3] deals with T3, proteins displaced from immobilized biotin-Cmpd 1 pulldowns (U2OS cell lysate) (Homo sapiens, UniProt Q6PK04).
T3 construct: endogenous in cells; host or cells: U2OS
To be noted: GN=CCDC137 (Q6PK04). The method, then:
as §1, §2, §3, §4

Experiment [4] concerns the target T4, proteins displaced from immobilized biotin-Cmpd 1 pulldowns (U2OS cell lysate) (Homo sapiens, UniProt O94925).
T4 construct: endogenous in cells; host or cells: U2OS
The following applies: GN=GLS (O94925). The method, then: as §1, §2, §3, §4

Experiment [5] addresses T5, proteins displaced from immobilized biotin-Cmpd 1 pulldowns (U2OS cell lysate) (Homo sapiens, UniProt Q9Y6M1).
T5 construct: endogenous in cells; host or cells: U2OS
The following applies: GN=IGF2BP2 (Q9Y6M1). On the procedure: as §1, §2, §3, §4

Experiment [6] addresses T6, proteins displaced from immobilized biotin-Cmpd 1 pulldowns (U2OS cell lysate) (Homo sapiens, UniProt P47756).
T6 construct: endogenous in cells; host or cells: U2OS
To be noted: GN=CAPZB (P47756). On the procedure: as §1, §2, §3, §4

Experiment [7] deals with T7, proteins displaced from immobilized biotin-Cmpd 1 pulldowns (U2OS cell lysate) (Homo sapiens, UniProt P60174).
T7 construct: endogenous in cells; host or cells: U2OS
The following applies: GN=TPI1 (P60174). On the procedure:
as §1, §2, §3, §4

In experiment [8] the target is T8, proteins displaced from immobilized biotin-Cmpd 1 pulldowns (U2OS cell lysate) (Homo sapiens, UniProt P57678).
T8 construct: endogenous in cells; host or cells: U2OS
To be noted: GN=GEMIN4 (P57678). On the procedure:
as §1, §2, §3, §4

Experiment [9] addresses T9, proteins displaced from immobilized biotin-Cmpd 1 pulldowns (U2OS cell lysate) (Homo sapiens, UniProt Q7Z2W4).
T9 construct: endogenous in cells; host or cells: U2OS
The following applies: GN=ZC3HAV1 (Q7Z2W4). On the procedure:
as §1, §2, §3, §4

In experiment [10] the target is T10, proteins displaced from immobilized biotin-Cmpd 1 pulldowns (U2OS cell lysate) (Homo sapiens, UniProt Q13867).
T10 construct: endogenous in cells; host or cells: U2OS
To be noted: GN=BLMH (Q13867). On the procedure: as §1, §2, §3, §4

Molecules are shown by their SMILES. “And” between values parts separate entries of the source, which are not always exact repeats. Identical values can stand only once.

T4 sequence (O94925 55-669): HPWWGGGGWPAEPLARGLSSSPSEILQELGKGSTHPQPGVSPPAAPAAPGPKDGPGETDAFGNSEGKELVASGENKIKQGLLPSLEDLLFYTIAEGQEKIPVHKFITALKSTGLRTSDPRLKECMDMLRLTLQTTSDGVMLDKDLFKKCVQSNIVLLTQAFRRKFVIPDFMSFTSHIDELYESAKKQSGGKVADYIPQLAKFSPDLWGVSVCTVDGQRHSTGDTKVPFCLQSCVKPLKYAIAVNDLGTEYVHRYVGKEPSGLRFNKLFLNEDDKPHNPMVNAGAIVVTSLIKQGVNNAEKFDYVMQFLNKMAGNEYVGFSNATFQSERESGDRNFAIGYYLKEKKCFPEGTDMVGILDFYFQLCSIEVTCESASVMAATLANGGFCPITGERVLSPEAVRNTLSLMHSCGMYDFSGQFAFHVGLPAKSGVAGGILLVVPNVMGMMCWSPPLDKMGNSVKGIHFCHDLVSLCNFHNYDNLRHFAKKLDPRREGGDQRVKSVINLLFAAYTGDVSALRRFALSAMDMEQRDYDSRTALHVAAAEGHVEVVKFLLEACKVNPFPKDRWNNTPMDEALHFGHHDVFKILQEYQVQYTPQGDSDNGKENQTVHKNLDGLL
T3 sequence (Q6PK04 whole entry): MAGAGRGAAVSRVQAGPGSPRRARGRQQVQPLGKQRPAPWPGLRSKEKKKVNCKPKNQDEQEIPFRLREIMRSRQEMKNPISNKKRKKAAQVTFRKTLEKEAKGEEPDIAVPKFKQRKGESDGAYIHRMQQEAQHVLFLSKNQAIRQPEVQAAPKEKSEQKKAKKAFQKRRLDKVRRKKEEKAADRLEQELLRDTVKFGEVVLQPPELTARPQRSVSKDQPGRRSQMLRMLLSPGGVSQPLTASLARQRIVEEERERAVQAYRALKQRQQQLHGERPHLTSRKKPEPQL
T1 sequence (P40939 37-763): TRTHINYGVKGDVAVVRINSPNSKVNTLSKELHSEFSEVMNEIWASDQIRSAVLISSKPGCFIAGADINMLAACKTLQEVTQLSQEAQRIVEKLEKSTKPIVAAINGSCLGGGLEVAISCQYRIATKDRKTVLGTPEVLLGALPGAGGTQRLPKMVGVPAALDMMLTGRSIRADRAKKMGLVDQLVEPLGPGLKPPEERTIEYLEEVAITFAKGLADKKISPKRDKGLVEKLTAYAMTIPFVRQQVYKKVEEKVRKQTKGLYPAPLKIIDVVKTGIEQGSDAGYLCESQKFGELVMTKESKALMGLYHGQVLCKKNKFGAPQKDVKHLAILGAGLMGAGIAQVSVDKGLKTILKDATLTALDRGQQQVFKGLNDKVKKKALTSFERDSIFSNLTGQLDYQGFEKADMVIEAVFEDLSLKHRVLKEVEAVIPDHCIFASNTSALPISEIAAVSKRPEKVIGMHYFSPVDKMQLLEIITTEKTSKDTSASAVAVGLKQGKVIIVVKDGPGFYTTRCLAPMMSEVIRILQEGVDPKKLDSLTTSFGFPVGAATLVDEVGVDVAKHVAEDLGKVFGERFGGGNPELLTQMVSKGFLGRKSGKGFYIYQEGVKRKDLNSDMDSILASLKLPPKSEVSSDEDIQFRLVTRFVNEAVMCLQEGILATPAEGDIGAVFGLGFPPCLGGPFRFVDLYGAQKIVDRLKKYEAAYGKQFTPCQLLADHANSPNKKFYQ
T2 sequence (P35606 whole entry): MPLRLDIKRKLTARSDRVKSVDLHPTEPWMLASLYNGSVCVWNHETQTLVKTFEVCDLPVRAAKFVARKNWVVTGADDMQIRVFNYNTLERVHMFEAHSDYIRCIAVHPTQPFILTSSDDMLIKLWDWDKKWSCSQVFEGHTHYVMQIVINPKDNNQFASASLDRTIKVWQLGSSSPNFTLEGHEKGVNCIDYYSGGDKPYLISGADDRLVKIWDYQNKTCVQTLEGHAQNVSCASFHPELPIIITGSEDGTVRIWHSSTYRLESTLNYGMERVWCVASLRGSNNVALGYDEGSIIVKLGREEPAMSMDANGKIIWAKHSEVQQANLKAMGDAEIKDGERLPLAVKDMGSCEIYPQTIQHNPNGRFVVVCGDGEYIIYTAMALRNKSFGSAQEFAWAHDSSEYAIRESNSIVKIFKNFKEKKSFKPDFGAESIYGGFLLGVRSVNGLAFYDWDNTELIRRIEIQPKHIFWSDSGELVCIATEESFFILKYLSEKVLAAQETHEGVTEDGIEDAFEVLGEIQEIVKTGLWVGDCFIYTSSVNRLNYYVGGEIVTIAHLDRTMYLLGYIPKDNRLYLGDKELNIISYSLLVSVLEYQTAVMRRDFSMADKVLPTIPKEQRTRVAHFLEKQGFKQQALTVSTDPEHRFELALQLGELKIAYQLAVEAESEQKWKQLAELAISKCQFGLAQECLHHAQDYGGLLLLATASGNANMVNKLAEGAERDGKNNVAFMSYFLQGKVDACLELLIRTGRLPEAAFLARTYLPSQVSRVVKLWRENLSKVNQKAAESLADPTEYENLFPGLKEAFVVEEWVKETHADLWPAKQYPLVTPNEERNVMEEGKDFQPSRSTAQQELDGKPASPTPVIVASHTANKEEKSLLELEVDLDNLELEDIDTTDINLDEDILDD
T5 sequence (Q9Y6M1 whole entry): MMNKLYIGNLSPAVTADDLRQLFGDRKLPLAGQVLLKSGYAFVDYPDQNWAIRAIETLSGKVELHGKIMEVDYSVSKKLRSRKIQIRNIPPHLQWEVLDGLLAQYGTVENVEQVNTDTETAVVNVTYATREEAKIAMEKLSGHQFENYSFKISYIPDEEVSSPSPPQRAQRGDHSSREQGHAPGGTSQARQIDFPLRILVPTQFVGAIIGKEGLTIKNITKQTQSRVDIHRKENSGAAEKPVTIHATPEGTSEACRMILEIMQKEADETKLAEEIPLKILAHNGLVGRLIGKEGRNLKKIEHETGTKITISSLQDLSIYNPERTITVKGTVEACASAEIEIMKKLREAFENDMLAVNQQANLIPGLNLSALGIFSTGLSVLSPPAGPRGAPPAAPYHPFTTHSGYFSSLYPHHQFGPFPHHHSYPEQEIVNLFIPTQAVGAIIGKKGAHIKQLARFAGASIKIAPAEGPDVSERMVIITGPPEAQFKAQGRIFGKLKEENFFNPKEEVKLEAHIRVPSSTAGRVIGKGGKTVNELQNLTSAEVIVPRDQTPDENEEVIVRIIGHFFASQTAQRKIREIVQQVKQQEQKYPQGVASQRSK
T8 sequence (P57678 whole entry): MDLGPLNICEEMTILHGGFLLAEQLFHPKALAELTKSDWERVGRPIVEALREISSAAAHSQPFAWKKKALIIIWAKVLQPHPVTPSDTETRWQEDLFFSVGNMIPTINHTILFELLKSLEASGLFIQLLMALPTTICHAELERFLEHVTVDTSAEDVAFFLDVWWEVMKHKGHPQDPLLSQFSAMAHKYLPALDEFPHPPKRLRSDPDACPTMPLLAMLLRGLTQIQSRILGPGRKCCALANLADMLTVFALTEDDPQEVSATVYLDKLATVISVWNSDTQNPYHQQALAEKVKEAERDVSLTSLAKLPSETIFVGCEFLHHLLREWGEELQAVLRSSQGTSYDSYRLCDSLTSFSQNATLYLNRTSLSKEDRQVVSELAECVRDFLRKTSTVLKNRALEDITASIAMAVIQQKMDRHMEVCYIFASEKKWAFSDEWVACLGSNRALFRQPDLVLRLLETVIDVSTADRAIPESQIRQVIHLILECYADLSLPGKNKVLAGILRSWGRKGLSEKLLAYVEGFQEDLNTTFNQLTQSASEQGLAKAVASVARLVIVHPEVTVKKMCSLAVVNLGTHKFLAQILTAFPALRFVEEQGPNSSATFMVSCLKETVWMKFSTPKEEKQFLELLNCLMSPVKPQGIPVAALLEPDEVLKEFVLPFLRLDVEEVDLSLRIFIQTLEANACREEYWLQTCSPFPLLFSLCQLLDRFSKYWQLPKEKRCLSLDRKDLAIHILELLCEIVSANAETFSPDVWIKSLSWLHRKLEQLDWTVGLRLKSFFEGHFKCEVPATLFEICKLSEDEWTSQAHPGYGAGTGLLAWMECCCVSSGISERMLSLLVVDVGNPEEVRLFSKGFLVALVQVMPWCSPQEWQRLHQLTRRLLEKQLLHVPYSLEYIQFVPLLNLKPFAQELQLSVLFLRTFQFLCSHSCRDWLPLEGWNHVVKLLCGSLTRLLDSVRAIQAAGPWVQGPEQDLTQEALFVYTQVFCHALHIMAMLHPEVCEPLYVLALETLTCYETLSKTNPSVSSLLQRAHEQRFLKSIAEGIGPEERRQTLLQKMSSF
T10 sequence (Q13867 whole entry): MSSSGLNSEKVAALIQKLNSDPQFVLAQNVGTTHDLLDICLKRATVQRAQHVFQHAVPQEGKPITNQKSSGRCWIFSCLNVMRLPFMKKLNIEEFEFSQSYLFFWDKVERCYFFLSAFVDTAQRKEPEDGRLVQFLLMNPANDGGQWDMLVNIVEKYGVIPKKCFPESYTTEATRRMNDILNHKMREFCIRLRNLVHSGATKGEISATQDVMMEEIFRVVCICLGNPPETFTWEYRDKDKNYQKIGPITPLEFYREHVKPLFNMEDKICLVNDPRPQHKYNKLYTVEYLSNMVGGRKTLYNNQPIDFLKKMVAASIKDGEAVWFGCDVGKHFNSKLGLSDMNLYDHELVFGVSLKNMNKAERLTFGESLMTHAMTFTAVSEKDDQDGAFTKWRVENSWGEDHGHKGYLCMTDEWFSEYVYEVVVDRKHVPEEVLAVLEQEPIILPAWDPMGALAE
T7 sequence (P60174 whole entry): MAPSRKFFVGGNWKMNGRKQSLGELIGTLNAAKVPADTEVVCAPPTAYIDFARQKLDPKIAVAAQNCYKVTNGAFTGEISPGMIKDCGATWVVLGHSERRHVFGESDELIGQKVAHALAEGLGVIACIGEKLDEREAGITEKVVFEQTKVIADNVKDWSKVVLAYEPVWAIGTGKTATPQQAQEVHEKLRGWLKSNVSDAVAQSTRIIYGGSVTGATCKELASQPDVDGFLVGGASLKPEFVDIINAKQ

Take `Cn1c2c(c(=N)c3c1CCC3)CCC2` [Compound 1, 4-methyl-2,3,4,5,6,7-hexahydrodicyclopenta[b,e]pyridin-8(1H)-imine]: the Difference is listed as 0.947 in experiment [1] (Cmpd minus DMSO, -LOG(P-value) 0.714126); 1.032 in experiment [2] (Cmpd minus DMSO, -LOG(P-value) 1.0232); 2.593 in experiment [3] (Cmpd minus DMSO, -LOG(P-value) 1.1923); 1.117 in [4] (Cmpd minus DMSO, -LOG(P-value) 0.714958); 1.759 in experiment [5] (Cmpd minus DMSO, -LOG(P-value) 0.946138); -1.787 in [6] (Cmpd minus DMSO, -LOG(P-value) 1.09295). Further, the Difference in [7] (Cmpd minus DMSO, -LOG(P-value) 0.713184) is -0.9556; in [8] (Cmpd minus DMSO, -LOG(P-value) 1.57311), -2.921; in [9] (Cmpd minus DMSO, -LOG(P-value) 1.54428) it was 1.228; in [10] (Cmpd minus DMSO, -LOG(P-value) 0.904295) it was -3.65. In addition, the “iBAQ Cmpd” value in [1] (replicates 1-3) is 19.348 and 18.8178 and 18.412; in [2] (replicates 1-3), 16.3801 and 15.3301 and 15.6123; in [3] (replicates 1-3), 19.0065 and 18.1463 and 18.0423; in experiment [4] (replicates 1-3) it was 18.1344 and 18.3969 and 16.5727; in experiment [5] (replicates 1-3) it was 20.2891 and 19.4609 and 19.6711; in experiment [6] (replicates 1-3), 15.5737 and 16.3289 and 18.0803. The “iBAQ Cmpd” value is 17.6148 and 17.9108 and 16.6151 in experiment [7] (replicates 1-3); 14.9119 and 15.2101 and 14.5309 in experiment [8] (replicates 1-3); 18.1805 and 17.0719 and 17.7662 in experiment [9] (replicates 1-3); 19.0378 and 19.0387 and 13.7316 in experiment [10] (replicates 1-3).
